Results published in ChEMBL document CHEMBL4507268 (2021).

Tests used:
[1] = molecular target: Serine/threonine-protein kinase ULK1 (Homo sapiens) (UniProt O75385); settings: Compound concentration 1000.0 nM
[2] = molecular target: T1, cGMP-dependent protein kinase 2 (Homo sapiens) (UniProt Q13237); settings: Compound concentration 1000.0 nM
T1 sequence (whole entry): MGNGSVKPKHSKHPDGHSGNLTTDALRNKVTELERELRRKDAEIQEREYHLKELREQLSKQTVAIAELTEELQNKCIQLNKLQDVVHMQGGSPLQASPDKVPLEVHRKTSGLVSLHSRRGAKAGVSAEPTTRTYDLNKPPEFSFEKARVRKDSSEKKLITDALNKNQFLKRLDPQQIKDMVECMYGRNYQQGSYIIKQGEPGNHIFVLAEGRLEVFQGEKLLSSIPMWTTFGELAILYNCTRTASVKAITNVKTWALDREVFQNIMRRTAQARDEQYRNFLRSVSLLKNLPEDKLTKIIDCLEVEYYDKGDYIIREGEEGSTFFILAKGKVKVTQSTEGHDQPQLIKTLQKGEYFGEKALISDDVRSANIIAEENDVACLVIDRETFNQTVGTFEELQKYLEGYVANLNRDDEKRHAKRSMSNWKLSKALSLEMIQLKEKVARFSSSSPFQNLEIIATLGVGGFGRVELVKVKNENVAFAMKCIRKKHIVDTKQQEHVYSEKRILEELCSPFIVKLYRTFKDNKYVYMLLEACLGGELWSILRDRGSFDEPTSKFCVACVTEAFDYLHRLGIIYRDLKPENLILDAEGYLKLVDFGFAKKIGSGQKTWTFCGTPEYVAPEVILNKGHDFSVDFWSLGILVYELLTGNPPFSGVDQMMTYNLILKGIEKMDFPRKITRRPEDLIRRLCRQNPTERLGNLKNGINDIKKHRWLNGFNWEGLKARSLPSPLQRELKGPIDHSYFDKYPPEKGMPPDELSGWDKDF

[3] = molecular target: Serine/threonine-protein kinase 32C (Homo sapiens) (UniProt Q86UX6); settings: Compound concentration 1000.0 nM
Serine/threonine-protein kinase 32C (Homo sapiens), sequence (Q86UX6 whole entry): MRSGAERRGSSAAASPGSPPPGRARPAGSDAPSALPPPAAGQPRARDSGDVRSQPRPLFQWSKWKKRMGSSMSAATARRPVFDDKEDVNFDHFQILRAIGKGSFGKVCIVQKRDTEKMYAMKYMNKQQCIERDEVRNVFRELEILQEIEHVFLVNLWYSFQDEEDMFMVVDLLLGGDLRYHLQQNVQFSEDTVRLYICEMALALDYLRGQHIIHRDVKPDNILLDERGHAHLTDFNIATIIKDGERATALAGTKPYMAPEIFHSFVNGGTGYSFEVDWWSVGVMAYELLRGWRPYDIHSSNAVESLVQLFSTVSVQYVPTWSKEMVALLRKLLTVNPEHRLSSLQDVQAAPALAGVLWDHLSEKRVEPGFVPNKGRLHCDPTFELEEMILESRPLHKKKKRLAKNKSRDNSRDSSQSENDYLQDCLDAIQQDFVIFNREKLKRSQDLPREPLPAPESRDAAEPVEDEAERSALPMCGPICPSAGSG

[4] = molecular target: T2, Serine/threonine-protein kinase Nek3 (Homo sapiens) (UniProt P51956); settings: Compound concentration 1000.0 nM
T2 sequence (whole entry): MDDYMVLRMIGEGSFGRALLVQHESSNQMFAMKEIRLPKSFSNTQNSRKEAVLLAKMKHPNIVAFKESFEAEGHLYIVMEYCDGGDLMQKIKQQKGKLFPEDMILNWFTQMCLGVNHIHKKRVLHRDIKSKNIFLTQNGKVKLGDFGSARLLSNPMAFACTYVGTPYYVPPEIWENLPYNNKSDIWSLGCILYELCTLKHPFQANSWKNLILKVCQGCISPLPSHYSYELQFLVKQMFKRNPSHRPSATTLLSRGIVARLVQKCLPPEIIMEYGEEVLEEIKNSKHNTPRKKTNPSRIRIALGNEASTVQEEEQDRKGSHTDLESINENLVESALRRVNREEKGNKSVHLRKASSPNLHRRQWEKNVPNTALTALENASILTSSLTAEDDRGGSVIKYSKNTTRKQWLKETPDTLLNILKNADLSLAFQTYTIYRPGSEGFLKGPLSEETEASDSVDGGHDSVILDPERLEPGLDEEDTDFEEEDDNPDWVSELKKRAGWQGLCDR

[5] = molecular target: Leukocyte tyrosine kinase receptor (Homo sapiens) (UniProt P29376); settings: Compound concentration 1000.0 nM
[6] = molecular target: Serine/threonine-protein kinase WNK2 (Homo sapiens) (UniProt Q9Y3S1); settings: Compound concentration 1000.0 nM
[7] = molecular target: Glycogen synthase kinase-3 beta (Homo sapiens) (UniProt P49841); settings: Compound concentration 1000.0 nM
Glycogen synthase kinase-3 beta (Homo sapiens), sequence (P49841 whole entry, looked up): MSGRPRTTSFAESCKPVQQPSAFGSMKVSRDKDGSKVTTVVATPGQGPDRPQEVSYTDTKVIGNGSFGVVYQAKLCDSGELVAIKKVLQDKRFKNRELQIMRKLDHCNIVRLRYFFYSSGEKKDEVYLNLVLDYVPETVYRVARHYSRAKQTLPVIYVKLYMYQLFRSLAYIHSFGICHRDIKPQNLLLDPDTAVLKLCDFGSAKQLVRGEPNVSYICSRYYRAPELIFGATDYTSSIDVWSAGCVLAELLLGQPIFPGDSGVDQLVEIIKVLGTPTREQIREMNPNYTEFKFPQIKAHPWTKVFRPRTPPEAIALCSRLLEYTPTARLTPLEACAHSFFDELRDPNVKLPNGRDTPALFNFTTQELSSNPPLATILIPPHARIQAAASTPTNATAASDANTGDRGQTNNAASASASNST

[8] = molecular target: Mitogen-activated protein kinase 1 (Homo sapiens) (UniProt P28482); settings: Compound concentration 1000.0 nM
Mitogen-activated protein kinase 1 (Homo sapiens), sequence (P28482 whole entry): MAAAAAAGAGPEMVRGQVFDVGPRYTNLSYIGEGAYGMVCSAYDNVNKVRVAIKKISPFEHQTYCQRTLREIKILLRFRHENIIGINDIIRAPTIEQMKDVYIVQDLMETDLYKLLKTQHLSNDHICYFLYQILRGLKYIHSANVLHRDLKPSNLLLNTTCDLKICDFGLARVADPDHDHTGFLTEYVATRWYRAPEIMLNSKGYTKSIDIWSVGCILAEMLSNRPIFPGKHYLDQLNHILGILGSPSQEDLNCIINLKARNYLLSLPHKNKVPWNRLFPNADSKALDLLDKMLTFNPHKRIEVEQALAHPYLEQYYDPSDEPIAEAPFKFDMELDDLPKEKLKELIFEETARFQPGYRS

SK-BR-3 = test: Proliferation assay: SK-BR-3 (breast cancer); type: functional, cell-based; settings: Homo sapiens
[9] = molecular target: Mitotic checkpoint serine/threonine-protein kinase BUB1 (Homo sapiens) (UniProt O43683); settings: Compound concentration 1000.0 nM
Mitotic checkpoint serine/threonine-protein kinase BUB1 (Homo sapiens), sequence (O43683 whole entry, looked up, the tested form may be a part): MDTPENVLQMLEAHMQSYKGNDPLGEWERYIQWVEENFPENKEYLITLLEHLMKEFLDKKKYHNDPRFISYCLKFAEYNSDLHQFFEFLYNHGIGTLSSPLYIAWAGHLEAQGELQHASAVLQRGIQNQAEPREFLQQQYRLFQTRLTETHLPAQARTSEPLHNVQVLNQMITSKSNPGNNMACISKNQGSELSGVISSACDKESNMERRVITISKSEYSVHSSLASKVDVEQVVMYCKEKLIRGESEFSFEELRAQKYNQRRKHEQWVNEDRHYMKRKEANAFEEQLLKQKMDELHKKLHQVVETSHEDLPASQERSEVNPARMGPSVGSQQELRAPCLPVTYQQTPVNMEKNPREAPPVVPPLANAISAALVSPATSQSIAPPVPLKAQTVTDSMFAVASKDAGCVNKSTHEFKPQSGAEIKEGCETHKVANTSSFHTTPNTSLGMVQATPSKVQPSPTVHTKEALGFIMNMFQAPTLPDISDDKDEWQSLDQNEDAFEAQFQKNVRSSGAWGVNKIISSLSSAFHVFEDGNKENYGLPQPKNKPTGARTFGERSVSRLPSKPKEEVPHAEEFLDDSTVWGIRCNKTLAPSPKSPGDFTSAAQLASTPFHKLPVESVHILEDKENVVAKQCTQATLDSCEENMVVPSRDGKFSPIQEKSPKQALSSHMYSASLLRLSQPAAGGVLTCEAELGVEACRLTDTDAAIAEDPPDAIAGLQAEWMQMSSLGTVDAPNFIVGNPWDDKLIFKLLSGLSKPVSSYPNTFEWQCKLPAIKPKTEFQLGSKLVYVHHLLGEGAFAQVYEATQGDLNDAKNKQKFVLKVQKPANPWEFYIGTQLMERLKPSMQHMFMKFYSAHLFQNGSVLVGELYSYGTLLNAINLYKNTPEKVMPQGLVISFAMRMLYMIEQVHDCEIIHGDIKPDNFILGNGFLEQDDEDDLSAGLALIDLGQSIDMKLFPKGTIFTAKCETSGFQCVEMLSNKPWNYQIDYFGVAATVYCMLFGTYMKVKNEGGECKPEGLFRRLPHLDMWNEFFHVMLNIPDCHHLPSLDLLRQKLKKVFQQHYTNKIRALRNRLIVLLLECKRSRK

[10] = molecular target: Epithelial discoidin domain-containing receptor 1 (Homo sapiens) (UniProt Q08345); settings: Compound concentration 1000.0 nM
[11] = test system: Epidermal growth factor receptor (Homo sapiens), P00533 [T790M]; settings: Compound concentration 1000.0 nM
[12] = molecular target: Serine/threonine-protein kinase NIM1 (Homo sapiens) (UniProt Q8IY84); settings: Compound concentration 1000.0 nM
Serine/threonine-protein kinase NIM1 (Homo sapiens), sequence (Q8IY84 whole entry): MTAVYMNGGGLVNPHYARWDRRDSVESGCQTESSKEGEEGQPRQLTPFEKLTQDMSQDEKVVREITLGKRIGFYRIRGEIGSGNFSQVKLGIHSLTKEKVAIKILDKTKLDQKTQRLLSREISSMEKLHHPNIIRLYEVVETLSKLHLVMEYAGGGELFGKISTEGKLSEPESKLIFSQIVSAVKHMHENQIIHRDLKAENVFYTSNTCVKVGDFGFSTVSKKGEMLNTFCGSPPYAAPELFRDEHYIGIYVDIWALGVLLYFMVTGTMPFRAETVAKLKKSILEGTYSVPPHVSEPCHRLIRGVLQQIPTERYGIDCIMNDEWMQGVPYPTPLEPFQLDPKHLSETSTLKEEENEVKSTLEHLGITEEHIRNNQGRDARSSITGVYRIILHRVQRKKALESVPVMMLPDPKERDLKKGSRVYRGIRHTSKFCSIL

[13] = molecular target: Mitogen-activated protein kinase 6 (Homo sapiens) (UniProt Q16659); settings: Compound concentration 1000.0 nM
[14] = molecular target: Phosphatidylinositol 4,5-bisphosphate 3-kinase catalytic subunit delta isoform (Homo sapiens) (UniProt O00329); settings: Compound concentration 1000.0 nM
[15] = test system: Tyrosine-protein kinase ABL1 (Homo sapiens), P00519 [T315I]; settings: Compound concentration 1000.0 nM
[16] = molecular target: D(3) dopamine receptor (Homo sapiens) (UniProt P35462); settings: Compound concentration 10.0 uM
D(3) dopamine receptor (Homo sapiens), sequence (P35462 whole entry): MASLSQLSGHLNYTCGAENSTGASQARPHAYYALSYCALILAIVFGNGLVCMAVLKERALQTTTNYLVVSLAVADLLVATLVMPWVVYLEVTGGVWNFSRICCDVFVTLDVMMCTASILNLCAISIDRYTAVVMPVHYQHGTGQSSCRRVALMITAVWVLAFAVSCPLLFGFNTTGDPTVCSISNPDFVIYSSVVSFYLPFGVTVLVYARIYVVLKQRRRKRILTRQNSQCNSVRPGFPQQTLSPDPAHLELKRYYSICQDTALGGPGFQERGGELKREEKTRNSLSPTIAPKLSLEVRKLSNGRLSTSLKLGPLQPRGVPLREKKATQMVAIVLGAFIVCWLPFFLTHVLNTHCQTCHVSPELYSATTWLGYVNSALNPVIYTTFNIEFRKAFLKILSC

[17] = molecular target: T3, Dual specificity mitogen-activated protein kinase kinase 6 (Homo sapiens) (UniProt P52564); settings: Compound concentration 1000.0 nM
T3 sequence (whole entry): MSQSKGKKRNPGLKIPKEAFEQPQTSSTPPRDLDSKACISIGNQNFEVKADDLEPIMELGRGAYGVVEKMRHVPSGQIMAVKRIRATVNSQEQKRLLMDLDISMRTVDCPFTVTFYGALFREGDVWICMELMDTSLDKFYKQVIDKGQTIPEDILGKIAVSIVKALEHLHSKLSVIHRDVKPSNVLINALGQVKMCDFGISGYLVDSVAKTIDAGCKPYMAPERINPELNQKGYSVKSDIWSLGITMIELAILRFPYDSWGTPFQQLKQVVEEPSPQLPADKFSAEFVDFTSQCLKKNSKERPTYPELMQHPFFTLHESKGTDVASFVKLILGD

[18] = test system: Epidermal growth factor receptor (Homo sapiens), P00533 [UNDEFINED MUTATION]; settings: Compound concentration 1000.0 nM
[19] = molecular target: Histamine H2 receptor (Homo sapiens) (UniProt P25021); settings: Compound concentration 10.0 uM
[20] = molecular target: Calcium/calmodulin-dependent protein kinase kinase 1 (Homo sapiens) (UniProt Q8N5S9); settings: Compound concentration 1000.0 nM
Calcium/calmodulin-dependent protein kinase kinase 1 (Homo sapiens), sequence (Q8N5S9 whole entry, looked up): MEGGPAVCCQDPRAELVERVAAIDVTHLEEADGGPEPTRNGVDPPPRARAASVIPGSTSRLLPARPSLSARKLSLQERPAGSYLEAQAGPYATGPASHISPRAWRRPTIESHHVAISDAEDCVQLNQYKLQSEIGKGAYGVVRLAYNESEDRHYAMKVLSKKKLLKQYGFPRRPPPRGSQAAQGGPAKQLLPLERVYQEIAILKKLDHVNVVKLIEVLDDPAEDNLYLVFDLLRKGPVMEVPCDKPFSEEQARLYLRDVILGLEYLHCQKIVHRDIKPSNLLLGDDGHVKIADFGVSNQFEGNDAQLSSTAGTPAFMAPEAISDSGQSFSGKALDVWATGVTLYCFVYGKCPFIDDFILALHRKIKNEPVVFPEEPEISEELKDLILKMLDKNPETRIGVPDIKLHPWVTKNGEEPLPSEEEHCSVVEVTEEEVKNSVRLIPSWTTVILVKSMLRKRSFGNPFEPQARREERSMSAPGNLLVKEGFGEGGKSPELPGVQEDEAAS

Serine/threonine-protein kinase ULK1 (Homo sapiens), sequence (O75385 whole entry): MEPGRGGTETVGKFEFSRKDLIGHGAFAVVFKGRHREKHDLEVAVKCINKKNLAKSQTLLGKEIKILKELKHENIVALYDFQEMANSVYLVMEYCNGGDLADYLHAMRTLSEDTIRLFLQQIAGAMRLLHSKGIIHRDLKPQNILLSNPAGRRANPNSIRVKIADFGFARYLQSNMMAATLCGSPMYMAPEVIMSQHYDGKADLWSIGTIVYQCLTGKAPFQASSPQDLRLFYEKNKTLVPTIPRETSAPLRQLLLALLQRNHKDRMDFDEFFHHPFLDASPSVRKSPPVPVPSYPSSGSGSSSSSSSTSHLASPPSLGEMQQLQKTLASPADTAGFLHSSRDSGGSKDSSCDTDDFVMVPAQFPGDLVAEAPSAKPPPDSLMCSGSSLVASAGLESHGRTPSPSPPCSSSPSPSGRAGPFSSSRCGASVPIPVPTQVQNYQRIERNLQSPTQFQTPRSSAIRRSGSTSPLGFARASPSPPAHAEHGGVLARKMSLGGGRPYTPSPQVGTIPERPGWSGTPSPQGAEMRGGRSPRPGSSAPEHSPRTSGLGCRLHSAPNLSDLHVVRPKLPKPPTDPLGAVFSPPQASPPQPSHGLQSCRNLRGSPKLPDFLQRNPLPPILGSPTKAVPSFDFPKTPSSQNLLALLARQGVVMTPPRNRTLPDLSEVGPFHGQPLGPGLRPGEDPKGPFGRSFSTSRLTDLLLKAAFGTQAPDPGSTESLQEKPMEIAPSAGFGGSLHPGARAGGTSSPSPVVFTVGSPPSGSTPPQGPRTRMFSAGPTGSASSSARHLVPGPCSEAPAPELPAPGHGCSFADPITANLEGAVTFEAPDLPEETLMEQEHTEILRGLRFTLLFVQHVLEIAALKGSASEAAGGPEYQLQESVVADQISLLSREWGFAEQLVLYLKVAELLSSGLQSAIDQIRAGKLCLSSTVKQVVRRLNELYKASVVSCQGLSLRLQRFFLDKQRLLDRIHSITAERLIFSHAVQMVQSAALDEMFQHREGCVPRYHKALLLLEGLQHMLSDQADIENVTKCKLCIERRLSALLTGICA

Compound	residual activity [1]	residual activity [2]	residual activity [3]	residual activity [4]	residual activity [5]	residual activity [6]	residual activity [7]	residual activity [8]	IC50 (SK-BR-3)	residual activity [9]	residual activity [10]	residual activity [11]	residual activity [12]	residual activity [13]	residual activity [14]	residual activity [15]	inhibition [16]	residual activity [17]	residual activity [18]	inhibition [19]	other results
Cc1nc(C2CCN(C(=O)c3ccc(OC(F)(F)F)cc3N)CC2)c2ncc(N3CCN(C)CC3)cc2n1 [BAY-693]	49%	74%	100%	89%	86%	100%	100%	98%	22.4 µM (not active)	96%	100%	100%	89%	100%	78%	100%	-8.88%	97%	91%	23.6%	residual activity [20]: 100%
CN1CCN(c2cnc3c(C4CCN(C(=O)c5ccc(OC(F)(F)F)cc5N)CC4)ncnc3c2)CC1 [BAY-885]	100%	77%	100%	97%	49%	100%	100%	94%	> 30 µM (not active)	93%	100%	84%	100%	100%	86%	100%	7.59%	88%	77%	31.2%	residual activity [20]: 100%
